Earlier results as cited in patent publication US8258301B2, “Urotensin II receptor antagonists” (Boehringer Ingelheim International GmbH, priority 2007, dated 2012).

Conditions: patients, clinical trial

Compound: Cc1cc(NC(=O)NCCN2CCC(O)(Cc3ccccc3)CC2)c2ccccc2n1 [Palosuran]
- modulate the 24-hour urinary albumin excretion rate: 24.3%
